The test system of assay [1] is rapamycin specific antibody. The experiment in a line: BIAcore binding of antibody to matrix-immobilized compound. As to conditions: 803 resonance units (RU) of the compound immobilized on a solid matrix, EDC and NHS. On the procedure: The following example illustrates that 803 resonance units (RU) of the compound of Example 11 can be immobilized on a solid matrix using the BIAcore's standard protocol based on EDC and NHS used in a BIAcore. […] The kinetics of association and dissociation were determined for each concentration of antibody tested (0.625, 1.25, 2.5, 5.0, 10.0 ug/ml). […] This matrix can also be used for the isolation of novel binding proteins, as practiced by one skilled in the art. […] In one approach, tissue or cell lysates containing the appropriate protease inhibitors are incubated with FKBP which has been incubated with a deprotected-rapamycin 42-ester with N-[9fluoren-9-ylmethoxy)carbonyl]glycine conjugated matrix for a sufficient time to allow binding. Various buffers are used to rinse the proteins which are nonspecifically bound.
A general note: Surface plasmon resonance follows binding to a sensor surface in real time, without labels.

A further assay deals with RAP-42-OVAF2#1 MoAb. As to conditions: for fluorescence polarization on addition of RAP-42-OVAF2#1 MoAb: 5 ug/mL MoAb. The text has this: The hybridoma cell line in P4G1 was cloned by limiting dilution and is designated as hybridoma cell line, RAP-42-OVAF2#1hc.
In assay [2] the target is T1, FKBP12 (Homo sapiens, UniProt P62942). The experiment in a line: Fluorescence polarization, tracer binding to FKBP12. The note with it: for fluorescence polarization on addition of FKBP12: 0.ug FKBP12 to 1.00 mL 10 nM tracer; for fluorescence polarization before addition of FKBP12: 1.00 mL 10 nM tracer. In general terms: Fluorescence polarisation rises when a labelled molecule tumbles more slowly, as on binding a larger partner.

For assay [3], the target named is T1, FKBP12. Description: Fluorescence polarization competition, rapamycin-fluorescein and FKBP12. The format is binding.
Another assay has as its system Anti-rapamycin Antibody. Description: Capture ELISA of anti-rapamycin antibody levels in rabbit sera. As to conditions: sera diluted 1:5, conjugate 0.5 ng/ml. The format is binding.
The subject of a further assay is mice. The note with it: 50 μg intrasplenically in Complete Freund's Adjuvant, boost 50 μg into footpads. On the procedure: Microtiter plates (IMMUNOLON I) were coated overnight with 100 μl of goat anti-mouse antibody (10 μg/ml in 10 mM potassium phosphate buffer, pH 7.2) at 4° C. The plates were flicked and blocked with 100 μl of 1% bovine sera albumin in phosphate buffered saline overnight at 4° C. After flicking and washing the plates thrice with 10 mM phosphate buffer, pH 7.05, 30 mM NaCl, 0.02% TRITON X-100 (polyethylene glycol tert-octylphenyl ether) and 0.004% thimerosal wash buffer, 100 μl of each mouse sera diluted with phosphate buffer solution was added to a well and incubated at room temperature for overnight.

Setting [4] is: tracer 10 nM in 100 mM sodium phosphate pH 7.5.

T1 sequence (P62942 whole entry, species assumed): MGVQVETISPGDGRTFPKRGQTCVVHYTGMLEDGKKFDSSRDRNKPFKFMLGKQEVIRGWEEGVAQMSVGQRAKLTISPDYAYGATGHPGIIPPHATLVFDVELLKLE

Turning to `COC1CC2CCC(C)C(O)(O2)C(=O)C(=O)N2CCCCC2C(=O)OC(C(C)CC2CCC(OC(=O)CNC(=O)OCC3c4ccccc4-c4ccccc43)C(OC)C2)CC(=O)C(C)C=C(C)C(O)C(OC)C(=O)C(C)CC(C)C=CC=CC=C1C` (stereo not shown) [Example 11], in assay [1], the “rapamycin specific antibody bound by the matrix” value stood at 1401 RU.
Turning to `CO[C@H]1C[C@@H]2CC[C@@H](C)[C@@](O)(O2)C(=O)C(=O)N2CCCC[C@H]2C(=O)O[C@H]([C@H](C)C[C@@H]2CC[C@@H](OC(=O)CCC(=O)NCC(=O)Nc3ccc4c(c3)C(=O)OC43c4ccc(O)cc4Oc4cc(O)ccc43)[C@H](OC)C2)CC(=O)[C@H](C)/C=C(\C)[C@@H](O)[C@@H](OC)C(=O)[C@H](C)C[C@H](C)/C=C/C=C/C=C/1C` [Example 23a, Rapamycin-42-ester with Succinic Acid Conjugate with 5-Glycinlfluoresceinamine], the “fluorescence polarization on addition of RAP-42-OVAF2#1 MoAb” value in the assay on RAP-42-OVAF2#1 MoAb turned out to be 58 mP. Also, in the assay with RAP-42-OVAF2#1 MoAb (setting [4]), the “polarization after addition of excess of RAP-42-OVAF2#1 MoAb” value was found to be 84 mP. Moreover, at FKBP12 [2], the “fluorescence polarization on addition of FKBP12” value is reported as 148 mP and the “fluorescence polarization before addition of FKBP12” value turned out to be 57 mP. Also, the “polarization after addition of an excess of FKBP12” value at FKBP12 [2] (setting [4]) came to 195 mP. Besides, at FKBP12 [2] (tracer 10 nM in 100 mM sodium phosphate pH 7.5, no binder), the “polarization of tracer alone” value is given as 77 mP.
For the molecule `CO[C@@H](C[C@@H]1CC[C@@H](C)[C@](O)(C(=O)C(=O)N2CCCC[C@H]2C(=O)[O-])O1)/C(C)=C/C=C/C=C/[C@@H](C)C[C@@H](C)C(=O)[C@H](OC)[C@H](O)/C(C)=C/[C@@H](C)C(=O)/C=C/[C@H](C)C[C@@H]1CC[C@@H](O)[C@H](OC)C1.[Na+]` [secorapamycin], the “fluorescence polarization in the presence of analyte” value on FKBP12 [3] (100 nM analyte, 128 mP in the absence of analyte, 500 uL 0.02 ug/mL FKBP12 + 500 μL 20 nM rapamycin-fluorescein) is 122 mP; with RAP-42-OVAF2#1 (100 nM analyte, 124 mP in the absence of analyte, 500 μL 10 μg/mL MoAb + 500 μL 20 nM secorapamycin-fluorescein), 74 mP. The “effect on binding of rapamycin-fluorescein to FKBP12 (in words)” value on FKBP12 [3] (analyte 0 to 100 nM) is “no effect”. Moreover, the “effect on binding of secorapamycin fluorescein derivative to RAP-42-OVAF2#1 (in words)” value in the assay on RAP-42-OVAF2#1 (analyte 0 to 100 nM) is recorded as “inhibits binding”.
As to “Rapamycin 31.42-Diester with Glutaric Acid Conjugate with Horseradish Peroxidase [Example 10]”, in the assay with Anti-rapamycin Antibody (Rabbit No. 81), the “Prebleed (A450)” value turned out to be 0.119 and the “ΔA450 (3rd Bleed-Prebleed)” value was 0.713. In the assay on Anti-rapamycin Antibody (Rabbit No. 89), the “Prebleed (A450)” value came out at 0.136 and the “ΔA450 (3rd Bleed-Prebleed)” value is 0.037.
For “Rapamycin 31.42-Diester with Glutaric Acid Conjugate with Keyhole Limpet Hemocyanin [Example 8]”, the “mice with antibodies reactive for compound of Example 10” value with mice is “five of the five”.
Turning to “Rapamycin 42-Ester with 3-[3-(4-iminobutylthio)succinimidyl]phenacyl-glycine Conjugate with Horseradish Peroxidase [Example 12]”, the “ΔA450 (3rd Bleed-Prebleed)” value amounted to 0.217 in the assay with Anti-rapamycin Antibody (Rabbit No. 81) and 0.026 in the assay on Anti-rapamycin Antibody (Rabbit No. 89).
Consider “Secorapamycin 42-ester with Succinic Acid Conjugate with 5-Glycinylfluoresceinamine [Example 24]”, for which, in the assay on RAP-42-OVAF2#1 MoAb, the “binding by RAP-42-OVAF2#1 MoAb (in words)” value is reported as “binds specifically”, the “fluorescence polarization before addition of RAP-42-OVAF2#1 MoAb” value worked out at 44 mP and the “fluorescence polarization on addition of RAP-42-OVAF2#1 MoAb” value is reported as 136 mP. Moreover, at FKBP12 [2], the “fluorescence polarization on addition of FKBP12” value turned out to be 58 mP and the “fluorescence polarization before addition of FKBP12” value is recorded as 49 mP.

B1: Rapamycin 42 Ester with (N-(3-carboxyphenyl)-3-thiosuccinimidyl)-glycine Conjugate with Horseradish Peroxidase (conjugate, UniProt P00433 31-338, looked up)
Peroxidase C1A: QLTPTFYDNSCPNVSNIVRDTIVNELRSDPRIAASILRLHFHDCFVNGCDASILLDNTTSFRTEKDAFGNANSARGFPVIDRMKAAVESACPRTVSCADLLTIAAQQSVTLAGGPSWRVPLGRRDSLQAFLDLANANLPAPFFTLPQLKDSFRNVGLNRSSDLVALSGGHTFGKNQCRFIMDRLYNFSNTGLPDPTLNTTYLQTLRGLCPLNGNLSALVDFDLRTPTIFDNKYYVNLEEQKGLIQSDQELFSSPNATDTIPLVRSFANSTQTFFNAFVEAMDRMGNITPLTGTQGQIRLNCRVVNSNS
modifications: rapamycin 42-ester hapten conjugate
Take B1: the figures for the “ΔA450 (3rd Bleed-Prebleed)” value in the assay with Anti-rapamycin Antibody (Rabbit No. 81) and in the assay with Anti-rapamycin Antibody (Rabbit No. 89) were 0.114 and 0.020, respectively.

Values taken from US6541612B2 (Wyeth, priority 1993, dated 2003).
